What all share (format): cell-based
Assay [1] has as its system RAS-mutant NSCLC cell lines. Kind of assay: Induction of apoptosis (caspase 3/7 activation) in panel of RAS-mutant NSCLC cell lines. Conditions: Ras mut NSCLC cell lines, caspase 3/7 activation, 24 hours of treatment, trihydrate.
Procedure: (§2) A panel of 24 non-small cell lung carcinoma (NSCLC) cell lines harboring RAS mutations was analyzed for genomic alterations, gene expression profiling and protein phosphorylation in MAPK and PI3K pathways. Inhibition of cell growth and induction of apoptosis were determined by CellTiter-Glo® and caspase 3/7 activation assays after 72 and 24 hours of treatment, respectively.
Another assay relates to H460 NSCLC cells. Kind of assay: Caspase 3/7 activation, H460. More on the design: key: −: lack of caspase 3/7 activation after 24 hours of compound treatment; ++: moderate; +++: strong; ++++: very strong. The following applies: H460, KRAS^Q61H; BRG1 WT, LKB1 MUT, CDKN2A MUT; 24 hours.
The subject of another assay is SW900 NSCLC cells. Kind of assay: Caspase 3/7 activation, SW900. The following applies: SW900, KRAS^G12V; BRG1 WT, LKB1 WT, CDKN2A MUT; 24 hours. On the set-up: key: −: lack of caspase 3/7 activation after 24 hours of compound treatment; ++: moderate; +++: strong; ++++: very strong.
Another assay has as its system H157 NSCLC cells. The experiment in a line: Caspase 3/7 activation, H157. More on the design: key: −: lack of caspase 3/7 activation after 24 hours of compound treatment; ++: moderate; +++: strong; ++++: very strong. Conditions: H157, KRAS^G12R; BRG1 MUT, LKB1 MUT, CDKN2A WT; 24 hours.
In a further assay the test system is H2347 NSCLC cells. The experiment in a line: Caspase 3/7 activation, H2347. The following applies: H2347, KRAS^Q61K; BRG1 WT, LKB1 WT, CDKN2A WT; 24 hours. More on the design: key: −: lack of caspase 3/7 activation after 24 hours of compound treatment; ++: moderate; +++: strong; ++++: very strong.
A further assay deals with H727 NSCLC cells. Kind of assay: Caspase 3/7 activation, H727. On the set-up: key: −: lack of caspase 3/7 activation after 24 hours of compound treatment; ++: moderate; +++: strong; ++++: very strong. Conditions: H727, KRAS^G12V; BRG1 WT, LKB1 WT, CDKN2A WT; 24 hours.
Another assay concerns H1573 NSCLC cells. Kind of assay: Caspase 3/7 activation, H1573. On the set-up: key: −: lack of caspase 3/7 activation after 24 hours of compound treatment; ++: moderate; +++: strong; ++++: very strong. Conditions: H1573, KRAS^G12A; BRG1 MUT, LKB1 WT, CDKN2A WT; 24 hours.
Assay [2] concerns hematopoietic cancers from acute or chronic myeloid leukemia (AML or CML) origins. The experiment in a line: Cell proliferation assays, AML/CML lines. Conditions: in vitro. The source says: (§1) MEK proteins are a node in a certain extracellular signal-related kinase ERK pathway which is commonly hyper-activated In tumor cells. Oncogenic mutations in both B-raf and Ras signal through MEK1 and MEK2. In vitro, 80% of cell lines carrying activating mutations of B-Raf and 72% of Ras mutant cell lines were sensitive to N-{3-[3-cyclopropyl-5-(2-fluoro-4-iodo-phenylamino)-6,8-dimethyl-2,4,7-trioxo-3,4,6,7-tetrahydro-2H-pyrido[4,3-d]pyrimidin-1-yl]phenyl}acetamide, or a pharmaceutically acceptable salt in cell proliferation assays, and a majority (83% of hematopoietic cancers from acute or chronic myeloid leukemia (AML or CML, respectively) origins were also very sensitive.

Assay [3] deals with cell lines carrying activating mutations of B-Raf. The experiment in a line: Cell proliferation assays, B-Raf mutant cell lines. Conditions: in vitro.
Excerpt: as §1

In another assay the test system is Ras mutant cell lines. The experiment in a line: Cell proliferation assays, Ras mutant cell lines. Conditions: in vitro.
Excerpt: as §1

Procedure for H157 NSCLC cells: as §2
Procedure for H1573 NSCLC cells: as §2
Procedure for H2347 NSCLC cells: (§3) Inhibition of cell growth and induction of apoptosis were determined by CellTiter-Glo® and caspase 3/7 activation assays after 72 and 24 hours of treatment, respectively.
Procedure for H460 NSCLC cells: as §2
Procedure for H727 NSCLC cells: as §3
Procedure for SW900 NSCLC cells: as §3

As for `CC(=O)O[C@@]12CO[C@@H]1C[C@H](O)[C@@]1(C)C(=O)[C@H](O)C3=C(C)[C@@H](OC(=O)[C@H](O)[C@@H](NC(=O)OC(C)(C)C)c4ccccc4)C[C@@](O)([C@@H](OC(=O)c4ccccc4)[C@H]21)C3(C)C` [Docataxel, (2R,3S)—N-carboxy-3-phenylisoserine,N-tert-butyl ester, 13-ester with 5β-20-epoxy-1,2α,4,7β,10β,13α-hexahydroxytax-11-en-9-one 4-acetate 2-benzoate, trihydrate], the “Response Rate (sensitivity/total lines tested), Cell Apoptosis (capsase 3/7)” value is 42% in [1] (listed as docetaxel) and 42% (10/24) in assay [1]. Also, the “Apoptosis Response (caspase 3/7 activation)” value in the assay on H460 NSCLC cells was “++”; in the assay on SW900 NSCLC cells, “−”; with H157 NSCLC cells, “++”; in the assay on H2347 NSCLC cells, “−”; with H727 NSCLC cells it was “−”; with H1573 NSCLC cells, “++”.
Regarding `CC(=O)Nc1cccc(-n2c(=O)n(C3CC3)c(=O)c3c(Nc4ccc(I)cc4F)n(C)c(=O)c(C)c32)c1` [Compound A, N-{3-[3-cyclopropyl-5-(2-fluoro-4-iodo-phenylamino)-6,8-dimethyl-2,4,7-trioxo-3,4,6,7-tetrahydro-2H-pyrido[4,3-d]pyrimidin-1-yl]phenyl}acetamide], the “Share of hematopoietic cancers very sensitive in cell proliferation assays” value in [2] is on record as 83%. Moreover, the “Apoptosis Response (caspase 3/7 activation)” value with H460 NSCLC cells was “−”; in the assay with SW900 NSCLC cells, “−”; in the assay on H157 NSCLC cells it was “−”; with H2347 NSCLC cells, “++”; with H727 NSCLC cells, “++”; in the assay with H1573 NSCLC cells, “−”. For the same compound, the “Share of cell lines sensitive in cell proliferation assays” value came out at 80% in assay [3] and 72% with Ras mutant cell lines.

Values taken from US20130231346A1, “METHODS OF TREATING CANCER” (GLAXOSMITHKLINE INTELLECTUAL PROPERTY (NO.2) LIMITED, priority 2010, published 2013).
